From BindingDB's records for doi:10.1016/S0960-894X(97)10006-3 (1997)

Assay: Binding affinity for DHP (Dihydropyridine) site of L-type calcium channel of calf heart in the resting state

SMILES | IC50 [nM]
CCOC(=O)C1=C(C)NC(C)=C(C#N)[C@@H]1c1cnccc1-c1cccc2ccccc12 | 270
CCOC(=O)C1=C(C)NC(C)=C(C#N)[C@@H]1c1cnccc1-c1ccc2ccccc2c1 | 100
CCOC(=O)C1=C(C)NC(C)=C(C#N)[C@@H]1c1cnccc1-c1ccccc1 | 250
